The results in this text go back to PubChem BioAssay AID652109 (The Scripps Research Institute Molecular Screening Center, 2013).

Activity calls are given as the source filed them. How the calls were made is not given here.

This assay deals with Serine/threonine-protein phosphatase PP1-alpha catalytic subunit (Homo sapiens) (UniProt P62136). Briefly: PP1 phosphatase inhibitors, late-stage follow-up, biochemical, OMFP substrate, fluorescence (AID 652109). To be noted: PP1 dephosphorylation of OMFP, at 6.7 µM, active compounds read high.
Chain of Serine/threonine-protein phosphatase PP1-alpha catalytic subunit (Homo sapiens) (P62136 whole entry, looked up): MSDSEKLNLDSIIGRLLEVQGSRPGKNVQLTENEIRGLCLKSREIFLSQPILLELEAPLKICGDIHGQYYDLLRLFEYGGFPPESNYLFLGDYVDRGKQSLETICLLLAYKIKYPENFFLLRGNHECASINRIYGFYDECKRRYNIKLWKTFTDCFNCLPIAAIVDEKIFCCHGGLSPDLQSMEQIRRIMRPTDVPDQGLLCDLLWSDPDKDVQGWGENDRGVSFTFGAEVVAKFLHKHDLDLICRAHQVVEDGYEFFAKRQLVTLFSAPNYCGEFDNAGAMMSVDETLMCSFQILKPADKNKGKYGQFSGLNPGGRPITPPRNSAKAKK
With `O=c1[nH]c(Nc2ccccc2)cc2ccccc12`, the inhibition is 9.24% (inactive).
As to `CN1CCN(C(c2ccccn2)c2cc(Cl)c3cccnc3c2O)CC1` (centres undefined), the inhibition was 74%.
Then `O=S(=O)(Cc1cc(NCc2ccccc2)nc(-c2ccccn2)n1)c1ccccc1`, with 44.6%.
As for `COc1ccc(Cl)cc1C(=O)Nc1cccc(-c2ccc3nncn3n2)c1`, the inhibition was 60.4%.
On to `COc1ccc(Cn2c(N)c(C(=O)NCc3ccco3)c3nc4ccccc4nc32)cc1OC`, for which the inhibition was 3.29% (inactive).
As to `CCCN(CC1CC1)c1nc(N)c2c(N)nc(OC)cc2c1C#N`, the inhibition was 3.83% (inactive).
With `CCOC(=O)c1nn(-c2ccc(C)cc2)c(=O)c2c(N)scc12` the figure was 6.08% (inactive); with `Clc1ccc(-n2nnnc2-c2cnc(-c3ccccn3)nc2-c2cccs2)cc1`, 67.4%.
Then `O=C1CCCC2=C1C1(O)C(=O)c3ccccc3C1(O)O2` (centres undefined), with 3.09% (inactive); and `COc1cnc(-c2ccccn2)nc1Sc1ccccc1Cl`, with 68.5%.
On to `CC(=O)C(C(C)=O)C1(O)C(=O)c2ccccc2C1=O`, for which the inhibition is 0.756% (inactive).
Then `COc1ccc(OCCCC(=O)Nc2nc(-c3ccccn3)cs2)cc1`, with 33.3%.
As for `COc1ccc(C(=O)c2nccc3cc(OC)c(OC)cc23)cc1OC`, the inhibition is 0.984% (inactive).
With `Cc1ccc(C(=O)NC2(O)C(=O)c3ccccc3C2=O)cc1C` the figure was -0.875% (inactive); with `COc1ccc2c(Cl)c(C(=O)N/N=C/c3ccc4c(c3)OCO4)sc2c1`, 23% (inactive); with `Cc1nnc(NC(=O)C2C3C=CC(O3)C2C(=O)O)s1` (centres undefined), 8.42% (inactive).
As for `O=C1Nc2ccccc2N2CCCC12` (centres undefined), the inhibition was -0.206% (inactive).
With `O=C(NC1(O)C(=O)c2ccccc2C1=O)c1ccccc1` the figure was -2.88% (inactive).
For the compound `CCOC(=O)c1cnc(-n2cc(C)cn2)nc1NCc1ccc2c(c1)OCO2`, the inhibition is 12.9% (inactive).
With `COc1cnc(-c2ccccn2)nc1Oc1cccc(Cl)c1`, the inhibition was 49.5%.
Then `Cc1ccc(-n2nc(C(=O)O)cc2-c2ccc(Cl)cc2)cc1`, with 56%.
Consider `O=C(NC1(O)C(=O)c2ccccc2C1=O)c1c(Cl)cccc1Cl`, for which the inhibition is 0.361% (inactive).
In the case of `CCOC(=O)c1cnc(-n2nc(C)cc2C)nc1NC(C)c1ccccc1` (centres undefined), the inhibition was 68.8%.
Then `O=C(O)C1C2CCC(O2)C1C(=O)NC1CCCCC1` (centres undefined), with 25% (inactive); and `COc1ccc(NC(=O)C2C3CCC(O3)C2C(=O)O)c(OC)c1` (centres undefined), with 34.9%.
Then `CCOC(=O)c1sc(N2C(=O)C(O)=C(C(=O)c3ccco3)C2c2cccc([N+](=O)[O-])c2)nc1C` (centres undefined), with 32.7%; and `COc1ccc(Sc2nc(-c3ccccn3)ncc2OC)cc1`, with 71.2%.
Then `Cc1cc(C)c(S(=O)(=O)/N=C2\C=C(Sc3ncn[nH]3)C(=O)c3ccccc32)cc1C`, with 5.9% (inactive); and `COc1ccc(CN2C(=O)Cc3c2nc(N)c2c(N)nc(N4CCCCC4)c(C#N)c32)cc1`, with 6.16% (inactive).
`COc1ccc(NC(=S)Nc2ccc3nsnc3c2)cc1`: the inhibition was 2.7% (inactive).
In the case of `O=C(NC1(O)C(=O)c2ccccc2C1=O)c1ccc(C(F)(F)F)cc1`, the inhibition was 6.8% (inactive).
With `CCn1c2ccccc2c2cc(NC(=O)COC(=O)c3ccc(NC(=O)CC#N)cc3)ccc21` the figure was 47.2%.
With `COc1cc(Br)c(C(=O)c2nccc3cc(OC)c(OC)cc23)cc1OC` the figure was -4.95% (inactive); with `Cc1[nH]n(-c2ccccc2)c(=O)c1C(c1ccc([N+](=O)[O-])cc1)c1c(C)[nH]n(-c2ccccc2)c1=O`, -0.696% (inactive); with `CCOC(=O)c1cnc(-n2nc(C)cc2C)nc1NCCc1ccccc1`, 65.2%.
Then `Cc1ccc(C(=O)NNc2cc(N3CCCC3)nc(N3CCCC3)n2)cc1`, with 3.05% (inactive).
With `COc1cnc(-c2ccccn2)nc1Oc1cccc(C(F)(F)F)c1`, the inhibition was -4.5% (inactive).
On to `O=C(O)c1cc(-c2ccc(Cl)cc2)n(-c2cccc(Cl)c2)n1`, for which the inhibition is 57.5%.
Regarding `CCOc1ccc(NC(=S)Nc2ccc3nsnc3c2)cc1`, the inhibition was 4.8% (inactive).
As for `c1ccc(-c2nccc(-c3ccc(-n4cnc5ccccc54)cc3)n2)nc1`, the inhibition is 62.4%.
As to `COc1ccccc1Sc1nc(-c2ccccn2)ncc1OC`, the inhibition was 65.9%.
Then `CCOC(=O)c1sc2nc3c(SCC(=O)O)cc(C(=O)c4cc(F)ccc4O)cn3c(=O)c2c1C`, with 67.8%; and `N#Cc1c(-c2ccc(Cl)cc2)cc(-c2cccs2)nc1SCC(=O)O`, with 46.6%.
As for `CCOC(=O)c1cnc(-n2nc(C)cc2C)nc1NCc1ccccc1`, the inhibition was 58.3%.
Then `COc1cnc(-c2ccccn2)nc1Sc1ccc(Cl)cc1`, with 53.2%.
Consider `Nc1nc(-c2ccccn2)nc(N)c1Cc1ccc(Cl)cc1Cl`, for which the inhibition is 65.9%.
Turning to `CCOC(=O)c1cnc(-n2nc(C)cc2C)nc1NC1CCCCC1`, the inhibition was 57.6%.
For the compound `Oc1ccccc1/C=N/Nc1cc(N2CCCC2)nc(N2CCCC2)n1`, the inhibition is 4.78% (inactive).
Then `N#Cc1c(N2CCCC(O)C2)nc(N)c2c(N)nc3c(c12)CC(=O)N3C12CC3CC(CC(C3)C1)C2` (centres undefined), with 8.91% (inactive).
On to `Oc1ccc(/C=N/Nc2cc(N3CCOCC3)nc(N3CCOCC3)n2)c(O)c1`, for which the inhibition is 5.24% (inactive).
Then `COc1cnc(-c2ccccn2)nc1Sc1ccc(C)cc1`, with 65.8%; and `Oc1cccc(/C=N/Nc2cc(N3CCCC3)nc(N3CCCC3)n2)c1`, with 23.5% (inactive).
Then `O=C(O)c1cc(-c2ccc(Cl)c(Cl)c2)n(-c2ccc(F)cc2)n1`, with 57.1%; and `CC(C)(CS(=O)(=O)[O-])NC(=O)CC[N+](C)(C)CCO`, with 49.4%; and `O=C(Nc1nc(-c2ccccn2)cs1)C1CC(=O)N(c2ccc3c(c2)OCCO3)C1` (centres undefined), with 49.4%.
With `CCCCn1c(NC(=O)c2ccco2)c(C(=O)OCC)c2nc3ccccc3nc21`, the inhibition was -4% (inactive).
`Nc1cc2nsnc2cc1Br`: the inhibition is -4.44% (inactive).
Consider `COc1cnc(-c2ccccn2)nc1Sc1cccc(Cl)c1`, for which the inhibition was 67.6%.
In the case of `c1ccc(Nc2nc(-c3ccccn3)cs2)cc1`, the inhibition was 63.7%.
Then `O=C(O)c1cc(-c2ccc(Cl)c(Cl)c2)n(-c2ccccc2)n1`, with 60.5%; and `CCOC(=O)C1=C(C)OC2(O)c3ccccc3C(=O)C12O` (centres undefined), with 18.6% (inactive).
Regarding `COc1cnc(-c2ccccn2)nc1Sc1ccc(F)cc1`, the inhibition was 52.5%.
On to `CCCCN(CC)c1nc(N)c2c(N)nc(OCC)cc2c1C#N`, for which the inhibition was 3.48% (inactive).
Then `COc1cnc(-c2ccccn2)nc1Sc1ccccc1`, with 60.7%.

One may read the inhibition as the drop in the measured response relative to a control, in per cent.
